# Target: Acetolactate synthase, chloroplastic (Arabidopsis thaliana, UniProt P17597, W574L)
# Conditions: not given
row,Compound,Ki [µM]
1,Cc1ccc(SSc2nc[nH]n2)cc1,25.7
2,Cc1nc(SSc2ccccc2[N+](=O)[O-])n[nH]1,27.1
3,CC(C)C1(C)N=C(c2nc3ccccc3cc2C(=O)O)NC1=O (stereo not drawn) [IMAZAQUIN],470
4,COC(=O)c1ccccc1S(=O)(=O)NC(=O)Nc1nccc(C)n1 [MONOSULFURON ESTER],8.53

# Target: T1, Acetolactate synthase, chloroplastic (Arabidopsis thaliana, UniProt P17597)
# T1 sequence (P17597 whole entry): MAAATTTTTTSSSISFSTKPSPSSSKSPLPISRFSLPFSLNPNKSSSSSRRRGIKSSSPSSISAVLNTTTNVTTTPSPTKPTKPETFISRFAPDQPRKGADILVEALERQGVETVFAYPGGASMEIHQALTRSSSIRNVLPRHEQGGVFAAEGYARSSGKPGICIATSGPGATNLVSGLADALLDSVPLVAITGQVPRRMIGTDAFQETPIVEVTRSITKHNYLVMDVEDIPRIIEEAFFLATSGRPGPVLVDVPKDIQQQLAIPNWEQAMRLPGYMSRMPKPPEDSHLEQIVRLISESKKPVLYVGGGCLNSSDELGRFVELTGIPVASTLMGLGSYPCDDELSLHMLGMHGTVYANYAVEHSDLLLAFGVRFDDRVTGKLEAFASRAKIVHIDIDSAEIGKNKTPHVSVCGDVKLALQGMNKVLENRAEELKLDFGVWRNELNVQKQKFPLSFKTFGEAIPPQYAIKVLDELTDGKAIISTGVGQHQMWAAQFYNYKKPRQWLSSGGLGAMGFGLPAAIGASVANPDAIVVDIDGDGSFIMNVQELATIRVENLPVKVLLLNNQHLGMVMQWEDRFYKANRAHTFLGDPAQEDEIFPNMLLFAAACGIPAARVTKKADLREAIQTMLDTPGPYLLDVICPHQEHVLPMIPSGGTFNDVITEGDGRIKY
# Conditions: not given
row,Compound,Ki [µM]
1,Cc1ccc(SSc2nc[nH]n2)cc1,4.69
2,Cc1nc(SSc2ccccc2[N+](=O)[O-])n[nH]1,5.57
3,COC(=O)c1ccccc1S(=O)(=O)NC(=O)Nc1nccc(C)n1 [MONOSULFURON ESTER],0.26

# System: Brassica rapa subsp. oleifera
# Assay: Herbicidal activity against Brassica rapa subsp. oleifera assessed as Brassica rapa subsp. oleifera root growth inhibition at 100 mg/L
# Format: functional
# Conditions: read-out: GI
row,Compound,inhibition of growth at 100 µg/mL [%]
1,CCOC(=O)c1ccccc1SSc1n[nH]c(C)n1,26.6
2,Cc1nc(SSc2ccc3ccccc3c2)n[nH]1,0
3,c1ccc(SSc2n[nH]c(-c3ccncc3)n2)cc1,70.2
4,Cc1nc(SSc2ccccc2)n[nH]1,69.4
5,COC(=O)c1ccccc1SSc1nc[nH]n1,54.8
6,c1ccc(SSc2n[nH]c(-c3ccccc3)n2)cc1,81.7
7,COc1ccc(SSc2n[nH]c(C)n2)cc1,28.3
8,CCOC(=O)c1ccccc1SSc1n[nH]c(-c2ccncc2)n1,0
9,O=[N+]([O-])c1ccccc1SSc1n[nH]c(-c2ccccc2)n1,0
10,COc1ccc(SSc2n[nH]c(-c3ccncc3)n2)cc1,0
11,Cc1ccc(SSc2nc[nH]n2)cc1,67.5
12,Cc1nc(SSc2ccccc2C)n[nH]1,36.8
13,COC(=O)c1ccccc1SSc1n[nH]c(C)n1,10.6
14,CCOC(=O)c1ccccc1SSc1n[nH]c(-c2ccc(C)cc2)n1,0
15,Cc1ccc(SSc2n[nH]c(-c3ccc(C)cc3)n2)cc1,0
16,Cc1nc(SSc2ccc(Br)cc2)n[nH]1,17.6
17,Cc1nc(SSc2ccccc2[N+](=O)[O-])n[nH]1,59.6
18,Cc1ccc(SSc2n[nH]c(-c3ccncc3)n2)cc1,6.9
19,Cc1ccc(SSc2n[nH]c(-c3cccnc3)n2)cc1,0
20,Cc1ccccc1SSc1nc[nH]n1,43.6
21,COc1ccc(SSc2n[nH]c(-c3ccccc3)n2)cc1,29.4
22,COC(=O)c1ccccc1SSc1n[nH]c(-c2ccc(C)cc2)n1,44.9
23,Cc1ccc(-c2nc(SSc3ccccc3[N+](=O)[O-])n[nH]2)cc1,0
24,Cc1ccc(SSc2n[nH]c(C)n2)cc1,62.5
25,Cc1ccc(-c2nc(SSc3ccccc3)n[nH]2)cc1,54.1
26,CCOC(=O)c1ccccc1SSc1n[nH]c(-c2ccccc2)n1,34.3

row,Compound,inhibition of growth at 100 µg/mL [%]
1,Clc1ccc(SSc2n[nH]c(-c3ccccc3)n2)cc1,37.5
2,Cc1nc(SSc2ccccc2F)n[nH]1,13
3,COc1ccc(SSc2n[nH]c(-c3ccc(C)cc3)n2)cc1,11
4,Clc1ccc(SSc2n[nH]c(-c3ccncc3)n2)cc1,0
5,O=[N+]([O-])c1ccccc1SSc1n[nH]c(-c2ccncc2)n1,0
6,c1ccc(SSc2nc[nH]n2)cc1,86.6
7,COc1ccc(SSc2n[nH]c(-c3cccnc3)n2)cc1,14.3
8,COC(=O)c1ccccc1SSc1n[nH]c(-c2cccnc2)n1,0
9,Brc1ccc(SSc2nc[nH]n2)cc1,27.4
10,COC(=O)c1ccccc1SSc1n[nH]c(-c2ccccc2)n1,52.8
11,Cc1ccc(-c2nc(SSc3ccc(Cl)cc3)n[nH]2)cc1,24.1
12,Fc1ccccc1SSc1nc[nH]n1,47.2
13,CCOC(=O)c1ccccc1SSc1n[nH]c(-c2cccnc2)n1,0
14,Clc1ccc(SSc2nc[nH]n2)cc1,50.2
15,CCOC(=O)c1ccccc1SSc1nc[nH]n1,21.1
16,Cc1ccc(SSc2n[nH]c(-c3ccccc3)n2)cc1,87.5
17,O=[N+]([O-])c1ccccc1SSc1nc[nH]n1,69.8
18,O=[N+]([O-])c1ccccc1SSc1n[nH]c(-c2cccnc2)n1,27.4
19,Clc1ccc(SSc2n[nH]c(-c3cccnc3)n2)cc1,0
20,COC(=O)c1ccccc1S(=O)(=O)NC(=O)Nc1nccc(C)n1 [MONOSULFURON ESTER],88.5
21,Cc1nc(SSc2ccc(Cl)cc2)n[nH]1,24.1
22,c1ccc2cc(SSc3nc[nH]n3)ccc2c1,16.3
23,COC(=O)c1ccccc1SSc1n[nH]c(-c2ccncc2)n1,30.5
24,COc1ccc(SSc2nc[nH]n2)cc1,44.6
25,c1ccc(SSc2n[nH]c(-c3cccnc3)n2)cc1,66.2

# — ChEMBL document CHEMBL3045482, “Synthesis, crystal structure, in vitro acetohydroxyacid synthase inhibition, in vivo herbicidal activity, and 3D-QSAR of new asymmetric aryl disulfides” (J Agric Food Chem, 2012)
